# In paper PMC7280531, “A PROTAC peptide induces durable β-catenin degradation and suppresses Wnt-dependent intestinal cancer” (Cell Discovery, 2020):
# Where a SMILES comes first, the peptide text is derived from it. Bridges are numbered along the chain shown (N, C = ends). [ ]: non-standard residue; d: D form. S5 = C=CCCC[C@](C)(N)C(=O)O; Ahx = NCCCCCC(=O)O
# What was measured:
# SW480 cells = experiment: Cell permeability of FITC-labeled peptides in SW480 cells (confocal microscopy); format: cell-based
# Procedure: After elongation of the peptide and metathesis reaction were conducted on the resin according to a general protocol. Then, the Fmoc group was removed and the resin was treated with Fmoc-Ahx-OH (4 eq.), DIC (4 eq.), Oxyma pure (4 eq.) and NMP (6 mL) for 15 min at 60 °C. The Fmoc group was removed and the resin was treated with fluorescein isothiocyanate (FITC, 2 eq.) and DIPEA (2 eq.) in DMF (6 mL) at room temperature overnight. The biotinylated labeling was carried out as routine amino acid. Cleavage was conducted following a general protocol and crude peptide was purified by RP- HPLC to give the final products.
# Supplementary Fig. S3. Cell permeability of FITC-labeled peptides in SW480 […]
# (a) The uptake of FITC-labeled peptides into SW480 was examined after incubation for 6 h by confocal microscopy. The nuclei were counter-stained with DAPI. Scale bar = 100 μm. (b) FITC-xStAx and FITC-xStAx-VHLL were added to SW480 cells for 6 h, and then washed out with the growth medium. After 24 h and 48 h, the cells were counter-stained with DAPI and examined by confocal microscopy. Scale bar = 100 […]
# (1 picture or pasted object on this page, not shown here)
# Axin2 expression = experiment: Axin2^LacZ Wnt reporter mice, β-galactosidase staining of small intestine; format: in vivo; settings: i.p. injection, 7 doses/14 days
# Procedure: The small intestines were isolated from Axin2^LacZ reporter mice, washed with PBS and fixed in 4 % paraformaldehyde for 1 h at room temperature, then cut into small pieces (1 cm). The tissue pieces were stained with in situ β-galactosidase staining kit (Beyotime) according to the manufacturer’s instruction. The stained tissues were transferred to tissue cassettes and paraffin blocks prepared using standard methods. The tissues were sliced into 5 μm thick sections with paraffin slicing machine (RM2235, Leica) and subjected to hematoxylin staining.
# [1] = tested on: CRC patient-derived organoids; experiment: CRC patient-derived tumor organoid culture; format: cell-based, human; settings: 10 μM
# Procedure: Fig. 6 xStAx-VHLL restrains the survival of CRC patient-derived organoids. a Twelve CRC patient-derived organoids, numbered from C-01 to C-12, were treated with DMSO and 10 μM xStAx-VHLL for 4 days. The organoids survival rate of each group was calculated at day 4. b The C-08 organoids were treated with DMSO and 10 μM xStAx-VHLL for 4 days. The trypan blue staining at day 4 indicated the dead organoids. Scale bar = 100 μm. c The percentage of survived C-08 organoids was calculated each day after xStAx-VHLL treatment. d The C-08 organoids were treated with DMSO or 10 μM xStAx-VHLL for 48 h and then harvested for immunoblotting. Relative β-catenin protein levels were quantified. e The C-08 organoids were treated with DMSO and 10 μM xStAx-VHLL for 4 days. Scale bar = 100 μm. f The percentage of survived organoids in C-11 group was calculated each day after xStAx-VHLL treatment. g The C-11 organoids were treated with DMSO or 10 μM xStAx-VHLL for 48 h and then harvested for immunoblotting. Relative β-catenin protein levels were quantified. The relative band intensity was quantified with ImageJ and normalized to GAPDH levels.
# CRC patient tumor tissues were washed with cold HBSS. After removing the muscle tissue, the epithelial tumor tissues were cut into small pieces and vigorously suspended. Then the tissue suspension was centrifuged (3 min at 300–400 g) and tumor fraction was enriched at the bottom. Next, the tumor fraction was embedded in Matrigel (BD Biosciences) and seeded on 24-well plates with the culture medium, which includes Advanced DMEM/F12 supplemented with Penicillin/Streptomycin, GlutaMAX-I, N2, B27, N-acetylcysteine (Sigma-Aldrich), CHIR-99021 (5 μM, Selleck), A-83–01 (0.5 μM, Cayman), SB202190 (10 μM, Selleck), gastrin (1 nM, Tocris), Y27632 (10 μM, Enzo), PEG2 (2.5 μM, Selleck), nicotinamide (10 mM, Sigma-Aldrich), EGF (50 ng/mL, Invitrogen), Noggin (100 ng/mL, R&D) and R-spondin1 (500 ng/mL).
# β-catenin = target: T1, β-catenin (Homo sapiens, UniProt P35222); experiment: β-catenin immunoblotting / immunoprecipitation in HEK293T cells
# T1 sequence (P35222 1-781): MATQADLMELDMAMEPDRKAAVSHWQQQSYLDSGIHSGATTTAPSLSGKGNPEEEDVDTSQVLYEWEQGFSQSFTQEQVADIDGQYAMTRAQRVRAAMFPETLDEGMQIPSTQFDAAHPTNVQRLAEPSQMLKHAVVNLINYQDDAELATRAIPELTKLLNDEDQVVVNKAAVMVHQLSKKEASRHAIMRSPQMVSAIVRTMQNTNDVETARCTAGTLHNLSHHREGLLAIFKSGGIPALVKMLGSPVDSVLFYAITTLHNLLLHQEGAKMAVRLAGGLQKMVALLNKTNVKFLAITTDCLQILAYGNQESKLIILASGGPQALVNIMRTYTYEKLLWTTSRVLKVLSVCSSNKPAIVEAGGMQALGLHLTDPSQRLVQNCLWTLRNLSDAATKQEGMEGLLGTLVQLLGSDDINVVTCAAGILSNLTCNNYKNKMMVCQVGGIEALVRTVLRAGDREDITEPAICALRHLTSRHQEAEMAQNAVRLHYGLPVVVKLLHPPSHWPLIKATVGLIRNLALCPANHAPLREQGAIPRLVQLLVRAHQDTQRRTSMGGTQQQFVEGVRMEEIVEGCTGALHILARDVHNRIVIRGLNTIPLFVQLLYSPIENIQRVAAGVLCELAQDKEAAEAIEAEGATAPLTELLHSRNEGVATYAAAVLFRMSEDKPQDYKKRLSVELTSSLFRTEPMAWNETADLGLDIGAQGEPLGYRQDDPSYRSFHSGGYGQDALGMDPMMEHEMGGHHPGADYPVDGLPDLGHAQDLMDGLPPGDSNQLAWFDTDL
# Procedure: The relative band intensity was quantified with ImageJ and normalized to GAPDH.
# For immunoprecipitation, the cells were lysed in TNE lysis buffer (50 mM Tris-HCl, pH 8.0, 150 mM NaCl, 1% Nonidet P-40, and protease inhibitor cocktail). […] After 18,000×g centrifugation for 10 min, the lysates were immunoprecipitated with specific antibody and protein A-Sepharose beads and then washed the beads with TNE buffer for three times before immunoblotting.
# Wnt/β-catenin signaling = experiment: Topflash luciferase reporter assay in HEK293T cells; format: cell-based; settings: Wnt3a CM, 24 h
# Procedure: Dual luciferase reporter assay system (Promega) was used. HEK293T cells, cultured in 24-well plates, were transfected with 200 ng Topflash plasmid and 30 ng Renilla plasmid for 3-well cells. […] Then harvested the cells for luciferase activity measurement.
smiles,measurement,setting,value
CC[C@H](C)[C@@H]1NC(=O)[C@@](C)(NC(=O)[C@H](CCCNC(=N)N)NC(=O)[C@@H]2CCCN2C(=O)[C@H](Cc2c[nH]c3ccccc23)NC(=O)[C@H](CCCNC(=N)N)NC(=O)[C@H](CCCNC(=N)N)NC(C)=O)CCCC=CCCC[C@@](C)(C(=O)N[C@@H](Cc2c[nH]cn2)C(=O)N[C@H](C(=O)N[C@@H](CCCNC(=N)N)C(=O)N[C@@H](CCCNC(=N)N)C(=O)N[C@H](C(=O)N[C@@H](Cc2c[nH]c3ccccc23)C(=O)N[C@@H](CCCNC(=N)N)C(=O)NCCCCCC(=O)N[C@@H](C)C(=O)N[C@@H](CC(C)C)C(=O)N[C@@H](C)C(=O)N2CCC[C@H]2C(=O)N[C@@H](Cc2ccc(O)cc2)C(=O)N[C@H](C(=O)N2CCC[C@H]2C(N)=O)[C@@H](C)CC)C(C)C)C(C)C)NC(=O)[C@H](CC(=O)O)NC(=O)[C@H](CC(C)C)NC1=O [xStAx-VHLL] (Ac-RRWPR[S5]ILD[S5]HVRRVWR[Ahx]ALAPYIP-NH2; staple 6-10; N-terminus and C-terminus assumed),retention in the cell after wash-out,"SW480 cells; 6 h, washed out with growth medium, examined after 24 h and 48 h",retained in the cell much longer
same,membrane permeability / uptake into cells,SW480 cells; 6 h incubation,could efficiently enter into a cell
same,Axin2 expression (β-galactosidase staining),Axin2 expression,significantly blocked Axin2 expression
same,β-catenin protein level in C-08 organoids,"[1]; 2 days (48 h), immunoblot",reduced the β-catenin protein level
same,survival of C-11 organoids,[1]; 4 days,insensitive to xStAx-VHLL
same,patient-derived organoids whose survival was potently inhibited,"[1]; 4 days, 12 CRC samples C-01 to C-12",11/12
same,survival of C-08 and C-05 organoids,"[1]; 4 days, compared with DMSO control",strong inhibition function
same,"β-catenin protein level, MSAB versus xStAx-VHLL","β-catenin; 10 μM MSAB, 50 μM xStAx-VHLL (legend: 70 μM, Wnt3a CM), 24 h",decreased β-catenin protein to a comparable level
same,β-catenin ubiquitination,"β-catenin; 50 μM peptide 24 h, MG132 10 μM 12 h, IP and immunoblot",promoted β-catenin ubiquitination
same,time post treatment at which β-catenin degradation started,"β-catenin; 70 μM peptide and Wnt3a CM, immunoblot time course",12 h
same,endogenous β-catenin protein level,"β-catenin; 70 μM peptide, 24 h, without Wnt3a, immunoblot",reduced the β-catenin level
same,β-catenin protein level in Wnt3a-treated cells,"β-catenin; 70 μM peptide, Wnt3a CM, 24 h, immunoblot, lower than xStAx",significantly downregulated β-catenin protein level
same,β-catenin level after wash-out of the drug,"β-catenin; MSAB 10 μM or xStAx-VHLL 70 μM 24 h, then fresh medium 24 or 48 h",durable degradation of β-catenin
same,inhibition of Wnt-induced Topflash-luciferase compared with small-molecule inhibitors,"Wnt/β-catenin signaling; 70 μM xStAx-VHLL vs 10 μM XAV939, 20 μM PRI-724, 100 μM PNU-74654, 10 μM MSAB",comparable inhibition
same,dose dependence of effect on Wnt signaling (Topflash),Wnt/β-catenin signaling; indicated concentrations,dose-dependent effect on Wnt signaling
same,Wnt3a-induced expression of the Topflash-luciferase reporter,Wnt/β-catenin signaling; peptides 70 μM each,more potent in decreasing the Wnt3a-induced expression of the reporter
